Structures can show the parent of a compound that is named as a salt. ± gives the standard deviation of the averaged measurements.
Tested on: SW1353
Assay: relative viability vs DMSO control (72 h) (fraction); higher = more viable cells
Outline: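 Densities for seeding sarcoma cell lines into 384-well plates were set to give 80–90% confluence. After 24 h, 2.5 µl of serially diluted compound from source plates of 10 mM to 0.0002 mM went in, and plates stayed 72 h at 37 °C in 5% CO2 with 0.1% DMSO vehicle and a 5 µM positive control. Percent growth from ATPLite readings, averaged over up to triplicate wells, served as relative viability, rescaled so 1 means full and 0 means none.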

SMILES | relative viability (0.00017 µM) | relative viability (0.00051 µM) | relative viability (0.00152 µM) | relative viability (0.00457 µM) | relative viability (0.01372 µM) | relative viability (0.04115 µM) | relative viability (0.1235 µM) | relative viability (0.3704 µM) | relative viability (1.111 µM) | relative viability (3.333 µM) | relative viability (10 µM) | relative viability (2 pM) | relative viability (5 pM) | relative viability (15 pM) | relative viability (50 pM) | relative viability (0.00014 µM) | relative viability (0.00041 µM) | relative viability (0.0012 µM) | relative viability (0.0037 µM) | relative viability (0.011 µM) | relative viability (200 fM) | relative viability (600 fM)
Cc1ccc(F)c(NC(=O)Nc2ccc(-c3cccc4[nH]nc(N)c34)cc2)c1 [Linifanib] | 1.08 ± 0.035 | 0.998 ± 0.023 | 1.02 ± 0.012 | 1.02 ± 0.015 | 1 ± 0.036 | 1.01 ± 0.057 | 0.982 ± 0.055 | 1.037 ± 0.009 | 1.07 ± 0.018 | 1.07 ± 0.036 | 0.9638 ± 0.0037 | – | – | – | – | – | – | – | – | – | – | –
CC(C)N1CCN(Cc2cnc(-c3cc(-c4cccc5[nH]ccc45)cc4[nH]ncc34)o2)CC1 [Nemiralisib] | 1.07 ± 0.033 | 0.997 ± 0.044 | 0.992 ± 0.023 | 0.99 ± 0.032 | 0.983 ± 0.02 | 0.965 ± 0.043 | 0.948 ± 0.04 | 0.914 ± 0.025 | 0.85 ± 0.053 | 0.721 ± 0.044 | 0.59 ± 0.067 | – | – | – | – | – | – | – | – | – | – | –
COCc1c(-c2cc3cc(C)cc(OC)c3s2)c2c(N)ncnn2c1CN1CCNC(=O)C1 [Rogaratinib] | 1.075 ± 0.01 | 1.03 ± 0.021 | 0.977 ± 0.025 | 1.01 ± 0.036 | 0.964 ± 0.032 | 0.901 ± 0.028 | 0.879 ± 0.0097 | 0.819 ± 0.031 | 0.795 ± 0.014 | 0.757 ± 0.013 | 0.691 ± 0.021 | – | – | – | – | – | – | – | – | – | – | –
Cc1cc(Nc2ncnc3ccc(NC4=NC(C)(C)CO4)cc23)ccc1Oc1ccn2ncnc2c1 [Tucatinib] | 1.06 ± 0.053 | 1.04 ± 0.03 | 1.06 ± 0.03 | 1.04 ± 0.043 | 0.989 ± 0.045 | 0.931 ± 0.026 | 0.936 ± 0.031 | 0.895 ± 0.026 | 0.855 ± 0.053 | 0.897 ± 0.064 | 0.936 ± 0.0098 | – | – | – | – | – | – | – | – | – | – | –
O=C(Nc1cnn2ccc(N3CCC[C@@H]3c3cc(F)ccc3F)nc12)N1CC[C@H](O)C1 [Larotrectinib] | 1.07 ± 0.043 | 1.07 ± 0.027 | 1 ± 0.033 | 1.01 ± 0.057 | 1.03 ± 0.034 | 0.954 ± 0.026 | 0.99 ± 0.025 | 0.9488 ± 0.0041 | 0.984 ± 0.053 | 0.979 ± 0.025 | 0.921 ± 0.047 | – | – | – | – | – | – | – | – | – | – | –
CN1CCC(COc2cnc(-c3cccc(Cn4nc(-c5cccc(C#N)c5)ccc4=O)c3)nc2)CC1 [Tepotinib] | 1.025 ± 0.0083 | 1.02 ± 0.015 | 1.01 ± 0.021 | 1.01 ± 0.018 | 0.984 ± 0.028 | 0.988 ± 0.035 | 0.951 ± 0.029 | 0.976 ± 0.039 | 0.93 ± 0.046 | 0.977 ± 0.027 | 0.573 ± 0.17 | – | – | – | – | – | – | – | – | – | – | –
C[C@@H]1CCN(C(=O)CC#N)C[C@@H]1N(C)c1ncnc2[nH]ccc12 [Tofacitinib] | 1.08 ± 0.025 | 1.07 ± 0.06 | 1.03 ± 0.036 | 1.04 ± 0.027 | 0.986 ± 0.039 | 1.02 ± 0.031 | 0.989 ± 0.033 | 1.01 ± 0.034 | 0.998 ± 0.054 | 1 ± 0.022 | 0.884 ± 0.035 | – | – | – | – | – | – | – | – | – | – | –
N#CC[C@H](C1CCCC1)n1cc(-c2ncnc3[nH]ccc23)cn1 [Ruxolitinib] | 1.049 ± 0.0061 | 1.1 ± 0.052 | 1.1 ± 0.027 | 1.09 ± 0.029 | 1.09 ± 0.029 | 1.09 ± 0.014 | 1.05 ± 0.021 | 1.04 ± 0.011 | 1.03 ± 0.038 | 1.02 ± 0.033 | 0.807 ± 0.012 | – | – | – | – | – | – | – | – | – | – | –
C=CC(=O)N1CCC[C@@H](n2nc(-c3ccc(Oc4ccccc4)cc3)c3c(N)ncnc32)C1 [Ibrutinib] | 1.03 ± 0.041 | 1.04 ± 0.028 | 1 ± 0.032 | 1.013 ± 0.0014 | 0.947 ± 0.03 | 0.945 ± 0.011 | 0.854 ± 0.05 | 0.821 ± 0.012 | 0.746 ± 0.043 | 0.647 ± 0.014 | 0.412 ± 0.021 | – | – | – | – | – | – | – | – | – | – | –
COc1c(OCCCN2CCOCC2)ccc2c1N=C(NC(=O)c1cnc(N)nc1)N1CCN=C21 [Copanlisib] | 1.08 ± 0.053 | 1.05 ± 0.054 | 1.01 ± 0.025 | 0.917 ± 0.011 | 0.845 ± 0.033 | 0.743 ± 0.047 | 0.635 ± 0.045 | 0.518 ± 0.011 | 0.441 ± 0.015 | 0.412 ± 0.03 | 0.364 ± 0.017 | – | – | – | – | – | – | – | – | – | – | –
COc1cccc2c1C(=O)c1c(O)c3c(c(O)c1C2=O)C[C@@](O)(C(=O)CO)C[C@@H]3O[C@H]1C[C@H](N)[C@H](O)[C@H](C)O1 [Doxorubicin Hydrochloride] | 0.948 ± 0.043 | 0.971 ± 0.029 | 0.958 ± 0.022 | 0.949 ± 0.013 | 0.882 ± 0.043 | 0.81 ± 0.013 | 0.661 ± 0.029 | 0.376 ± 0.017 | 0.162 ± 0.0035 | 0.181 ± 0.011 | 0.115 ± 0.0047 | – | – | – | – | – | – | – | – | – | – | –
CO[C@H]1C[C@@H]2CC[C@@H](C)[C@@](O)(O2)C(=O)C(=O)N2CCCC[C@H]2C(=O)O[C@H]([C@H](C)C[C@@H]2CC[C@@H](OP(C)(C)=O)[C@H](OC)C2)CC(=O)[C@H](C)/C=C(\C)[C@@H](O)[C@@H](OC)C(=O)[C@H](C)C[C@H](C)/C=C/C=C/C=C/1C [Ridaforolimus] | 0.961 ± 0.028 | 0.905 ± 0.041 | 0.805 ± 0.012 | 0.771 ± 0.011 | 0.747 ± 0.029 | 0.742 ± 0.033 | 0.723 ± 0.016 | 0.72 ± 0.035 | 0.702 ± 0.012 | 0.707 ± 0.012 | 0.682 ± 0.023 | – | – | – | – | – | – | – | – | – | – | –
COc1cc2nccc(Oc3ccc(NC(=O)Nc4cc(C)on4)c(Cl)c3)c2cc1OC [Tivozanib] | 0.97 ± 0.029 | 0.983 ± 0.036 | 0.965 ± 0.044 | 0.961 ± 0.064 | 1.01 ± 0.033 | 0.988 ± 0.028 | 1.01 ± 0.021 | 1.04 ± 0.021 | 1.05 ± 0.054 | 0.8973 ± 0.0033 | 0.582 ± 0.0097 | – | – | – | – | – | – | – | – | – | – | –
C[C@@H](c1ccc2nccn2c1)n1nnc2ncc(-c3cnn(C)c3)nc21 [Volitinib] | 1.01 ± 0.033 | 1.01 ± 0.011 | 0.998 ± 0.028 | 1.02 ± 0.019 | 1.02 ± 0.044 | 1 ± 0.048 | 1.01 ± 0.045 | 0.976 ± 0.026 | 1.03 ± 0.016 | 0.987 ± 0.035 | 1.02 ± 0.023 | – | – | – | – | – | – | – | – | – | – | –
COc1cc2c(cc1O)CCN[C@]21CS[C@@H]2c3c(OC(C)=O)c(C)c4c(c3[C@H](COC1=O)N1[C@@H]2[C@H]2c3c(cc(C)c(OC)c3O)C[C@@H]([C@@H]1O)N2C)OCO4 [Trabectedin] | – | – | – | – | – | – | – | – | – | – | – | 1.09 ± 0.017 | 1.09 ± 0.027 | 1.06 ± 0.03 | 1.04 ± 0.013 | 1.04 ± 0.03 | 0.92 ± 0.018 | 0.0356 ± 0.003 | 0.229 ± 0.0077 | 0.186 ± 0.015 | 1.1 ± 0.027 | 1.1 ± 0.012
Cc1nc(-c2cn3c(n2)-c2ccc(-c4cnn(C(C)(C)C(N)=O)c4)cc2OCC3)n(C(C)C)n1 [Taselisib] | 0.925 ± 0.035 | 0.933 ± 0.02 | 0.953 ± 0.025 | 0.971 ± 0.013 | 0.884 ± 0.043 | 0.856 ± 0.031 | 0.785 ± 0.03 | 0.762 ± 0.014 | 0.69 ± 0.021 | 0.599 ± 0.021 | 0.469 ± 0.0077 | – | – | – | – | – | – | – | – | – | – | –
COc1cc2c(Oc3ccc4[nH]c(C)cc4c3F)ncnc2cc1OCCCN1CCCC1 [Cediranib] | 0.971 ± 0.026 | 0.993 ± 0.025 | 1.004 ± 0.0039 | 0.999 ± 0.024 | 0.954 ± 0.011 | 0.949 ± 0.016 | 0.908 ± 0.013 | 0.848 ± 0.035 | 0.79 ± 0.034 | 0.751 ± 0.11 | 0.0589 ± 0.0064 | – | – | – | – | – | – | – | – | – | – | –
Cc1nc(NC(=O)N2CCC[C@H]2C(N)=O)sc1-c1ccnc(C(C)(C)C(F)(F)F)c1 [Alpelisib] | 1.02 ± 0.034 | 1 ± 0.024 | 1.01 ± 0.011 | 0.973 ± 0.028 | 0.977 ± 0.072 | 0.902 ± 0.027 | 0.9309 ± 0.0035 | 0.903 ± 0.039 | 0.819 ± 0.061 | 0.731 ± 0.024 | 0.594 ± 0.037 | – | – | – | – | – | – | – | – | – | – | –
COc1cc2/c(=N/c3ccc(Br)cc3F)nc[nH]c2cc1OCC1CCN(C)CC1 [Vandetanib] | 0.952 ± 0.029 | 0.962 ± 0.017 | 0.941 ± 0.04 | 0.988 ± 0.018 | 0.976 ± 0.029 | 0.952 ± 0.032 | 0.957 ± 0.045 | 0.9245 ± 0.0051 | 0.92 ± 0.013 | 0.558 ± 0.019 | 0.0143 ± 0.0022 | – | – | – | – | – | – | – | – | – | – | –

Reference: the supplement of paper PMC10883282
